From patent US20120232070A1, “Use of Indole Derivatives as Nurr-1 Activators for the Application Thereof as a Medicament for the Treatment of Parkinson's Disease” (Laboratoires Fournier SA, priority 2009, published 2012)
pEC50: −log10 of the molar value.

Legend:
[1] = target: hNurr1_RXRγFL (NURR1/RXRγ heterodimer) (Homo sapiens, UniProt P43354+P48443); experiment: Transactivation assay in Cos-7 cells, NURR-1-Gal4 / RXRγ, luciferase reporter; format: cell-based; settings: for Emax: COS-7, read-out: hNurr1_RXRγFL Eff (%), efficacy in % relative to the reference XCT0135908 at 2·10^−5 M (=100%); for pEC50: Cos-7 cells, overnight incubation
Sequence of hNurr1_RXRγFL (NURR1/RXRγ heterodimer) (P43354 328-598): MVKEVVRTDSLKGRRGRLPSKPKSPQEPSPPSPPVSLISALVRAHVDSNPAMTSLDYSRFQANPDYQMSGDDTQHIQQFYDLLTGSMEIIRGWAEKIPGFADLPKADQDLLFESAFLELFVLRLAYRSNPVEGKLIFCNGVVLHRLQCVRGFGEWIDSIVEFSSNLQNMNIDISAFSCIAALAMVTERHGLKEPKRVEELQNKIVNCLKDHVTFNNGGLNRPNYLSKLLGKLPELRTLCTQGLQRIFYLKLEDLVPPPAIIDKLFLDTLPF
Sequence of hNurr1_RXRγFL (NURR1/RXRγ heterodimer) (P48443 whole entry, the tested form may be a part): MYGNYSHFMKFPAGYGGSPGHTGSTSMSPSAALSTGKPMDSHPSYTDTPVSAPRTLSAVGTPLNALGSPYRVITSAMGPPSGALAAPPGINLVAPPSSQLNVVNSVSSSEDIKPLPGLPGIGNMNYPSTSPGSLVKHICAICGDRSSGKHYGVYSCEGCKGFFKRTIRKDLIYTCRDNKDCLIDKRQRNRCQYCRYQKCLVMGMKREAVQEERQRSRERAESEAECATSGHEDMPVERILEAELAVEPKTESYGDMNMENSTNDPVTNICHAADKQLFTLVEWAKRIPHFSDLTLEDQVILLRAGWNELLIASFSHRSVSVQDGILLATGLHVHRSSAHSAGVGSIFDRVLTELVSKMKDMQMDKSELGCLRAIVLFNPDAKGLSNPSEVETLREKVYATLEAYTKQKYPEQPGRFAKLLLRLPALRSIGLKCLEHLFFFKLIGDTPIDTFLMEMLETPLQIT
In short: (§1)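 Cos-7 cells co-transfected with human NURR-1-Gal4 chimera, human RXRα or RXRγ, and 5Gal4pGL3-TK-Luc reporter; compounds added at 10^−4 to 3·10^−10 M final, overnight incubation, luciferase read. Induction over each heterodimer's baseline expressed as % of reference RXR agonist XCT0135908 (2·10^−5 M) taken as 100%.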

[2] = target: hNurr1_RXRαFL (NURR1/RXRα heterodimer) (Homo sapiens, UniProt P19793+P43354); experiment: Transactivation assay in Cos-7 cells, NURR-1-Gal4 / RXRα, luciferase reporter; format: cell-based; settings: for Emax: COS-7, read-out: hNurr1_RXRαFL Eff (%), efficacy in % relative to the reference XCT0135908 at 2·10^−5 M (=100%); for pEC50: Cos-7 cells, overnight incubation
Sequence of hNurr1_RXRαFL (NURR1/RXRα heterodimer) (P19793 whole entry, the tested form may be a part): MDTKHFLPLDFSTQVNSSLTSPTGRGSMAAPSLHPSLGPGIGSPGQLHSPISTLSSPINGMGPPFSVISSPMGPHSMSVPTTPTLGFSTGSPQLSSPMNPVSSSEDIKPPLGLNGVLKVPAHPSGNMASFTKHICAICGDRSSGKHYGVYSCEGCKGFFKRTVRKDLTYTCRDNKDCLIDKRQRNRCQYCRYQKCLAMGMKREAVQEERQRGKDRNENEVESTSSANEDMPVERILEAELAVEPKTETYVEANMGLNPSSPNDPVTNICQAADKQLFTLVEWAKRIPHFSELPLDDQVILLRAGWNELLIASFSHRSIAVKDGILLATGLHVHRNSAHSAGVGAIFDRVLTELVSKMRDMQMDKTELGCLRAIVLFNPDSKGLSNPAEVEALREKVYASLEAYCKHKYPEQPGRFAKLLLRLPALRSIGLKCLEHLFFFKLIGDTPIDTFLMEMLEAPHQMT
Sequence of hNurr1_RXRαFL (NURR1/RXRα heterodimer) (P43354 328-598): as the sequence (P43354 328-598) above
In short: as §1

[3] = efficacy in % relative to the reference XCT0135908 at 2·10^−5 M (=100%)

Structure (SMILES) | Emax [1] | pEC50 [1] | Emax [2] | pEC50 [2] | hNurr1_RXRγFL Eff (%) [1, 3] | hNurr1_RXRαFL Eff (%) [2, 3]
Cc1cc(Cc2cc3cc(C(F)(F)F)ccc3n2S(=O)(=O)c2cccc(C(C)(C)C)c2)c(F)cc1C(=O)O [Example 196, 4-[[1-[[3-(1,1-dimethylethyl)phenyl]sulfonyl]-5-trifluoromethyl-1H-indol-2-yl]methyl]-5-fluoro-2-methyl-benzoic acid] | 91% | 6.32 | 90% | 6.62 | – | –
CC(C)(C)c1cccc(S(=O)(=O)n2c(C(=O)c3ccc(C(=O)O)cc3)cc3cc(C(F)(F)F)ccc32)c1 [Example 219] | 32% | 5.49 | 57% | 5.95 | – | –
COc1cccc(S(=O)(=O)n2c(Cc3ccc(C(=O)O)cc3)cc3cc(Cl)ccc32)c1 [Example 166, 4-[[1-[3-methoxy-phenylsulfonyl]-5-(chloro)-1H-indol-2-yl]methyl]benzoic acid] | 27% | 5.97 | 50% | 6.17 | – | –
Cc1cccc(S(=O)(=O)n2c(Cc3ccc(C(=O)O)cc3)cc3cc(Cl)ccc32)c1 [Example 161, 4-[[5-chloro-1-[(3-methylphenyl)sulfonyl]-1H-indol-2-yl]methyl]benzoic acid] | 40% | 6.23 | 59% | 6.34 | – | –
CC(C)(C)c1cccc(S(=O)(=O)n2c(Cc3nc(C(=O)O)cs3)cc3cc(C(F)(F)F)ccc32)c1 [Example 89, 2-[[1-[[3-(1,1-dimethylethyl)-phenyl]sulfonyl]-5-trifluoromethyl-1H-indol-2-yl]methyl]-thiazole-4-carboxylic acid] | 62% | 6.21 | 77% | 6.58 | – | –
O=C(O)c1ccc(Cc2cc3cc(C(F)(F)F)ccc3n2S(=O)(=O)c2ccc3ccccc3c2)cc1 [Example 25, 4-[[1-(2-naphthalenylsulfonyl)-5-(trifluoromethyl)-1H-indol-2-yl]methyl]benzoic acid] | 33% | 6.06 | 47% | 6.30 | – | –
COC(=O)c1ccc(Cc2cc3cc(C(F)(F)F)c(F)cc3n2S(=O)(=O)c2cccc(C(C)(C)C)c2)cc1 [Example 110, 4-[[1-[[3-(1,1-dimethylethyl)phenyl]sulfonyl]-5-(trifluoro)-6-fluoro-1H-indol-2-yl]methyl]benzoic acid, methyl ester] | 95% | 7.20 | 92% | 7.82 | – | –
CC(C)(C)c1cccc(S(=O)(=O)n2c(Cc3ccc(C(=O)O)c(F)c3)cc3cc(C(F)(F)F)ccc32)c1 [Example 10, 2-fluoro-4-[[1-[[3-(1,1-dimethylethyl)phenyl]sulfonyl]-5-(trifluoromethyl)-1H-indol-2-yl]methyl]benzoic acid] | 56% | 6.03 | 63% | 6.39 | – | –
COc1cccc(S(=O)(=O)n2c(Cc3ccc(C(=O)O)cc3)cc3cc(C(F)(F)F)ccc32)c1 [Example 13, 4-[[1-[(3-methoxyphenyl)sulfonyl]-5-(trifluoromethyl)-1H-indol-2-yl]methyl]benzoic acid] | 36% | 6.28 | 69% | 6.68 | – | –
O=C(O)c1ccc(Cc2cc3cc(C(F)(F)F)ccc3n2S(=O)(=O)c2ccc(Oc3ccccc3)nc2)cc1 [Example 130, 4-[[1-[(6-phenoxy-3-pyridinyl)sulfonyl]-5-(trifluoromethyl)-1H-indol-2-yl]methyl]benzoic acid] | 22% | 5.77 | 30% | 6.46 | – | –
O=C(O)c1ccc(Cc2cc3cc(Cl)ccc3n2S(=O)(=O)c2ccc(Cl)cc2)cc1 [Example 160, 4-[[1-[4-chloro-phenylsulfonyl]-5-(chloro)-1H-indol-2-yl]methyl]benzoic acid] | 55% | 5.86 | 59% | 6.34 | – | –
CC(C)c1ccc(S(=O)(=O)n2c(Cc3ccc(C(=O)O)cc3)cc3cc(C(F)(F)F)ccc32)cc1 [Example 43, 4-[[1-[[4-(1-methylethyl)phenyl]sulfonyl]-5-(trifluoromethyl)-1H-indol-2-yl]methyl]benzoic acid] | 79% | 6.21 | 73% | 6.54 | – | –
O=C(O)c1ccc(Cc2cc3cc(Cl)ccc3n2S(=O)(=O)c2cccc(F)c2)cc1 [Example 154, 4-[[1-[3-fluoro-phenylsulfonyl]-5-(chloro)-1H-indol-2-yl]methyl]benzoic acid] | 66% | 5.86 | 68% | 6.33 | – | –
O=C(O)c1ccc(Cc2cc3cc(C(F)(F)F)ccc3n2S(=O)(=O)c2ccc(Cl)cc2)cc1 [Example 136, 4-[[1-[4-chloro-phenylsulfonyl]-5-(trifluoromethyl)-1H-indol-2-yl]methyl]benzoic acid] | 25% | < 5.00 | 35% | 6.56 | – | –
CC(C)(C)c1cccc(S(=O)(=O)n2c(C(F)c3ccc(C(=O)O)cc3)cc3cc(C(F)(F)F)ccc32)c1 (stereo not drawn) [Example 217, 4-[[1-[[3-(1,1-dimethylethyl)phenyl]sulfonyl]-5-(trifluoromethyl)-1H-indol-2-yl]fluoromethyl]benzoic acid] | 80% | 6.45 | 83% | 6.83 | – | –
CCCc1ccc(S(=O)(=O)n2c(Cc3ccc(C(=O)O)cc3)cc3cc(C(F)(F)F)ccc32)cc1 [Example 139, 4-[[1-[4-propyl-phenylsulfonyl]-5-(trifluoromethyl)-1H-indol-2-yl]methyl]benzoic acid] | 43% | 6.46 | 46% | 6.69 | – | –
Cc1c(Cc2cccc(C(=O)O)c2)n(S(=O)(=O)c2cccc(C(C)(C)C)c2)c2ccc(C(F)(F)F)cc12 [Example 186, 3-[[1-[[3-(1,1-dimethylethyl)phenyl]sulfonyl]-3-methyl-5-(trifluoromethyl)-1H-indol-2-yl]methyl]-benzoic acid] | 68% | 6.54 | 93% | 6.91 | – | –
O=C(O)c1ccc(Cc2cc3cc(Cl)ccc3n2S(=O)(=O)c2ccc3c(c2)OCCCO3)cc1 [Example 178] | 36% | 5.92 | 45% | 5.99 | – | –
CC(C)Oc1ccc(S(=O)(=O)n2c(Cc3ccc(C(=O)O)cc3)cc3cc(Cl)ccc32)cc1 [Example 162, 4-[[1-[4-isopropoxy-phenylsulfonyl]-5-(chloro)-1H-indol-2-yl]methyl]benzoic acid] | 40% | 5.81 | 56% | 6.16 | – | –
CC(C)c1cccc(S(=O)(=O)n2c(Cc3ccc(C(=O)O)cc3)cc3cc(Cl)ccc32)c1 [Example 51, 4-[[5-chloro-1-[[3-(1-methylethyl)phenyl]sulfonyl]-1H-indol-2-yl]-methyl]benzoic acid] | 69% | 5.95 | 74% | 6.10 | – | –
CS(=O)(=O)n1c(Cc2ccc(C(=O)O)cc2)cc2cc(Cl)ccc21 [Example 181, 4-[[5-chloro-1-(methylsulfonyl)-1H-indol-2-yl]methyl]benzoic acid] | 152% | 5.39 | 111% | 5.86 | – | –
CC(C)CCc1ccc(S(=O)(=O)n2c(Cc3ccc(C(=O)O)cc3)cc3cc(C(F)(F)F)ccc32)cc1 [Example 128, 4-[[1-[4-(3-methyl-butyl)-phenylsulfonyl]-5-(trifluoromethyl)-1H-indol-2-yl]methyl]benzoic acid] | 36% | 5.80 | 44% | 6.47 | – | –
CC(C)(C)c1cccc(S(=O)(=O)n2c(Cc3ccc(C(=O)O)o3)cc3cc(C(F)(F)F)ccc32)c1 [Example 69, 5-[[1-[[3-(1,1-dimethylethyl)-phenyl]sulfonyl]-5-trifluoromethyl-1H-indol-2-yl]methyl]-furan-2-carboxylic acid] | 72% | 7.82 | 79% | 8.05 | – | –
C=C(c1ccc(C(=O)O)cc1)c1cc2cc(Cl)ccc2n1S(=O)(=O)c1ccc(C(C)C)cc1 [Example 102, 4-[1-[1[[4-(1-methylethyl)phenyl]sulfonyl]-5-(chloro)-1H-indol-2-yl]-1-ethenyl]-benzoic acid] | 27% | 6.17 | 49% | 6.44 | – | –
O=C(O)c1ccc(Cc2cc3cc(C(F)(F)F)ccc3n2S(=O)(=O)c2cccc(OC(F)(F)F)c2)cc1 [Example 145, 4-[[1-[3-trifluoromethoxy-phenylsulfonyl]-5-(trifluoromethyl)-1H-indol-2-yl]methyl]benzoic acid] | 21% | 6.20 | 44% | 6.44 | – | –
CC(C)(C)c1cccc(S(=O)(=O)n2c(Cc3ccc(F)c(C(=O)O)c3)cc3cc(C(F)(F)F)ccc32)c1 [Example 210, 3-[[1-[[3-(1,1-dimethylethyl)-phenyl]sulfonyl]-5-trifluoromethyl-1H-indol-2-yl]methyl]-6-fluorobenzoic acid] | 68% | 7.09 | 70% | 7.16 | – | –
CC(C)c1cccc(S(=O)(=O)n2c(Cc3ccc(C(=O)O)cc3)cc3cc(C(F)(F)F)ccc32)c1 [Example 114, 4-[[1-[[3-(1-methylethyl)phenyl]sulfonyl]-5-(trifluoromethyl)-1H-indol-2-yl]methyl]benzoic acid] | – | 6.84 | – | 7.20 | 76% | 109%
